Source: PMC4109385 (BMC Microbiology, 2014)

Molecular target: ClpC (with MecA) (Streptococcus mutans, UniProt Q8DS14)
Conditions: 2 mM ATP, 5 mM MgCl2, 100 mM KCl, 25 mM Tris-HCl pH 8.0, 37 °C; 0.3 uM proteins; MecA present

ClpC (with MecA), sequence (Q8DW33 whole entry): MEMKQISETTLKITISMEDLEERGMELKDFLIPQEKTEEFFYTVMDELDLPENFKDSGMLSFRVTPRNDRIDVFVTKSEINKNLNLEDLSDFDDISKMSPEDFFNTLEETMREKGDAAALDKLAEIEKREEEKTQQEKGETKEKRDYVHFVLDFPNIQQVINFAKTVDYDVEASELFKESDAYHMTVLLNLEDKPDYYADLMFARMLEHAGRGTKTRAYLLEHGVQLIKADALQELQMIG
ClpC (with MecA), sequence (Q8DS14 entry or part of it): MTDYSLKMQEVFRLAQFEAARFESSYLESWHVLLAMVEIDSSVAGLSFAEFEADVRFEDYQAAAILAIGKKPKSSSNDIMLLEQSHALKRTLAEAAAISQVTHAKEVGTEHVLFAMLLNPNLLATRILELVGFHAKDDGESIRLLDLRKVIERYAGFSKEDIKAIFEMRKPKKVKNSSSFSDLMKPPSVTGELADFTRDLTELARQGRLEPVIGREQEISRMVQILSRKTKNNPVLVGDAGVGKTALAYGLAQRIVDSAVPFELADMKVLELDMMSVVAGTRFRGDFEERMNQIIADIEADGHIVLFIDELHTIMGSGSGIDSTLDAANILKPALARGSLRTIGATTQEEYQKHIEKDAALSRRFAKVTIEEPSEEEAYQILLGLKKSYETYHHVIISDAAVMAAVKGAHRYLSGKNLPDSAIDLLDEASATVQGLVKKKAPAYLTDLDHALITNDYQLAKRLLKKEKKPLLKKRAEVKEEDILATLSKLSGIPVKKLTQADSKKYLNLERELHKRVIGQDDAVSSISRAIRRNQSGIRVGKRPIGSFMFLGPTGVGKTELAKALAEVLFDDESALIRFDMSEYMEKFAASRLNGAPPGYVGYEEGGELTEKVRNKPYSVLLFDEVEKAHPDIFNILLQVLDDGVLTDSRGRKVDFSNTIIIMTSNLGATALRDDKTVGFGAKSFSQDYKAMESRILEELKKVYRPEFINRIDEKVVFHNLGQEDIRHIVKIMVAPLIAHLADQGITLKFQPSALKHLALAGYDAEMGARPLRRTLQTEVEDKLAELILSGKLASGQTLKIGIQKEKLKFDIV

Nc1ncnc2c1ncn2[C@@H]1O[C@H](COP(=O)(O)OP(=O)(O)OP(=O)(O)O)[C@@H](O)[C@H]1O [ATP]
malachite green ATPase assay (released orthophosphate): the presence of MecA increased the ATPase activity of ClpC (Figure 6A)
